From ChEMBL document CHEMBL1201862, “PubChem BioAssay data set” (2004)
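Cells were grown in 96-well plates and exposed to each compound for 48 hours at five concentrations; endpoints were interpolated linearly between bracketing concentrations, or set to the highest concentration if not reached. Here, GI50 denotes the concentration required for 50% inhibition of growth.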 The source made the active and inactive calls. Rule as the data show it: active = GI50 up to about 1.1 µM and inactive = higher.

What was measured:
Assay in all cases: NCI tumour cell line growth inhibition, 48 h
Malme-3M = system: Malme-3M
UACC-257 = system: UACC-257
K562 = system: K562
OVCAR-4 = system: OVCAR-4
COLO 205 = system: COLO 205
SN12C = system: SN12C
MCF7 = system: MCF7
NCI/ADR-RES = system: NCI/ADR-RES
A549 = system: A549
Hs-578T = system: Hs-578T
NCI-H522 = system: NCI-H522
BT-549 = system: BT-549
HCT-116 = system: HCT-116
A498 = system: A498
SF-295 = system: SF-295
SK-MEL-2 = system: SK-MEL-2
OVCAR-3 = system: OVCAR-3
OVCAR-8 = system: OVCAR-8
SNB-19 = system: SNB-19
TK-10 = system: TK-10
M14 = system: M14
U-251 = system: U-251
NCI-H23 = system: NCI-H23
UACC-62 = system: UACC-62
MOLT-4 = system: MOLT-4
HCT-15 = system: HCT-15
KM12 = system: KM12
UO-31 = system: UO-31
CCRF-CEM = system: CCRF-CEM
SW-620 = system: SW-620
MDA-MB-435 = system: MDA-MB-435
EKVX = system: EKVX
MDA-MB-231 = system: MDA-MB-231
SK-MEL-28 = system: SK-MEL-28
DU-145 = system: DU-145
RXF 393 = system: RXF 393
786-0 = system: 786-0
RPMI-8226 = system: RPMI-8226
PC-3 = system: PC-3
T47D = system: T47D
SF-268 = system: SF-268
IGROV-1 = system: IGROV-1
NCI-H226 = system: NCI-H226
HT-29 = system: HT-29
SK-OV-3 = system: SK-OV-3
CAKI-1 = system: CAKI-1
LOX IMVI = system: LOX IMVI
ACHN = system: ACHN
SK-MEL-5 = system: SK-MEL-5
SNB-75 = system: SNB-75
SR = system: SR
MDA-N = system: MDA-N
HCC 2998 = system: HCC 2998
OVCAR-5 = system: OVCAR-5
HOP-62 = system: HOP-62
NCI-H460 = system: NCI-H460
HL-60 = system: HL-60
SF-539 = system: SF-539

Measured: GI50

[O-][N+](CCO)(CCO)c1ncnc2[nH]cnc12
> 100 µM: HCT-15
inactive: Malme-3M > 100 µM | UACC-257 > 100 µM | K562 > 100 µM | OVCAR-4 > 100 µM | COLO 205 > 100 µM | SN12C > 100 µM | MCF7 76.6 µM | NCI/ADR-RES > 100 µM | A549 > 100 µM | Hs-578T > 100 µM | NCI-H522 > 100 µM | BT-549 > 100 µM | HCT-116 > 100 µM | A498 > 100 µM | SF-295 > 100 µM | SK-MEL-2 > 100 µM | OVCAR-3 > 100 µM | OVCAR-8 > 100 µM | SNB-19 > 100 µM | TK-10 > 100 µM | M14 > 100 µM | U-251 > 100 µM | NCI-H23 > 100 µM | UACC-62 > 100 µM | MOLT-4 > 100 µM | KM12 > 100 µM | UO-31 > 100 µM | CCRF-CEM > 100 µM | SW-620 > 100 µM | MDA-MB-435 > 100 µM | EKVX > 100 µM | MDA-MB-231 > 100 µM | SK-MEL-28 > 100 µM | DU-145 > 100 µM | RXF 393 > 100 µM | 786-0 > 100 µM | RPMI-8226 > 100 µM | PC-3 > 100 µM | T47D > 100 µM | SF-268 > 100 µM | IGROV-1 > 100 µM | NCI-H226 > 100 µM | HT-29 > 100 µM | SK-OV-3 > 100 µM | CAKI-1 > 100 µM | LOX IMVI > 100 µM | ACHN > 100 µM | SK-MEL-5 > 100 µM | SNB-75 > 100 µM | SR > 100 µM | MDA-N > 100 µM | HCC 2998 > 100 µM | OVCAR-5 > 100 µM | HOP-62 > 100 µM

COC(=O)CCNC(=O)OCc1ccccc1
inactive: NCI-H460 > 100 µM | Malme-3M > 100 µM | UACC-257 > 100 µM | K562 > 100 µM | COLO 205 > 100 µM | SN12C > 100 µM | MCF7 > 100 µM | NCI/ADR-RES > 100 µM | A549 > 100 µM | Hs-578T > 100 µM | HL-60 > 100 µM | NCI-H522 > 100 µM | BT-549 > 100 µM | HCT-116 > 100 µM | A498 > 100 µM | SF-295 > 100 µM | SK-MEL-2 > 100 µM | OVCAR-3 > 100 µM | OVCAR-8 > 100 µM | SNB-19 > 100 µM | TK-10 > 100 µM | M14 > 100 µM | U-251 > 100 µM | NCI-H23 > 100 µM | UACC-62 > 100 µM | MOLT-4 > 100 µM | KM12 > 100 µM | UO-31 > 100 µM | CCRF-CEM > 100 µM | SW-620 > 100 µM | MDA-MB-435 > 100 µM | EKVX > 100 µM | MDA-MB-231 > 100 µM | SK-MEL-28 > 100 µM | DU-145 > 100 µM | 786-0 > 100 µM | RPMI-8226 > 100 µM | PC-3 > 100 µM | T47D > 100 µM | SF-268 > 100 µM | IGROV-1 > 100 µM | NCI-H226 > 100 µM | HT-29 > 100 µM | SK-OV-3 > 100 µM | CAKI-1 > 100 µM | LOX IMVI > 100 µM | ACHN > 100 µM | SK-MEL-5 > 100 µM | SF-539 > 100 µM | SNB-75 > 100 µM | SR > 100 µM | MDA-N > 100 µM | HCC 2998 > 100 µM | OVCAR-5 > 100 µM | HOP-62 > 100 µM
> 100 µM: HCT-15
